This passage reports IC50 results from US11524966B1 (Valo Early Discovery, Inc., priority 2017, dated 2022).

Structures are written as SMILES.

The target of the first experiment is T1, USP25 (USP25-His6, Boston Biochem E-546) (Homo sapiens, UniProt Q9UHP3).
T1 construct: His6; purchased Boston Biochem E-546
T1 sequence (Q9UHP3 1-1055): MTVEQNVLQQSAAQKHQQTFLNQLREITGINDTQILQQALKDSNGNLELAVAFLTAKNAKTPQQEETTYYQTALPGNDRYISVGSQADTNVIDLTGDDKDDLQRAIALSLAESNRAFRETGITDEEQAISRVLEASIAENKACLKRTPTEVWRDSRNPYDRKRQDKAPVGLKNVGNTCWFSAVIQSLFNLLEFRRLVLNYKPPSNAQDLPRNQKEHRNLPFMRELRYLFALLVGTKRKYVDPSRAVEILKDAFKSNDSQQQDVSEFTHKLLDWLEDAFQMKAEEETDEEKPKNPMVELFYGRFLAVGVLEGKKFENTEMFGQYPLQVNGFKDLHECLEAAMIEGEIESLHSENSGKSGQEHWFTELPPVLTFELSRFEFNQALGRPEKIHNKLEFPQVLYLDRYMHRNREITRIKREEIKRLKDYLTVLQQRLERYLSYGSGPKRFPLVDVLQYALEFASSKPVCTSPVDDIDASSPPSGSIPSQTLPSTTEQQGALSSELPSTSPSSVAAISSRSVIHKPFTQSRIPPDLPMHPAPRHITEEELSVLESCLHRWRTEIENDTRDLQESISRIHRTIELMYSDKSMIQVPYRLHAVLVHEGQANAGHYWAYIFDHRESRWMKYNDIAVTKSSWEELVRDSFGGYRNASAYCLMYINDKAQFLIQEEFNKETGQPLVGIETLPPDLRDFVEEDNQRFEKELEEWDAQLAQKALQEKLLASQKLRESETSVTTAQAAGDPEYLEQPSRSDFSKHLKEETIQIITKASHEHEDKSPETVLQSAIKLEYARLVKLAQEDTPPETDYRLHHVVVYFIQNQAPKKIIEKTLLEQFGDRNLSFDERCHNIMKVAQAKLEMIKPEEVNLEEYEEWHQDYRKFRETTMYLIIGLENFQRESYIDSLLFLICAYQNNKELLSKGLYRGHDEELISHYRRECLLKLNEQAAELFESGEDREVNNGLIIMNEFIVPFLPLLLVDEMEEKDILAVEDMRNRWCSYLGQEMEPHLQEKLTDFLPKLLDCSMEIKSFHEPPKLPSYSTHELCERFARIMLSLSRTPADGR
The experiment can be described thus: Ubiquitin-Rhodamine 110 Assay for USP25 Activity, Example A-2. In kind it is biochemical. The following applies: Ub-Rh110 assay, Example A-2; read-out: USP25 A-2 IC50 range. Put shortly: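 Read-out: Rh110 fluorescence (ex 485, em 535 nm) after 45 min RT turnover of 25 nM Ub-Rh110 by 75 pM USP25-His6, quenched with 10 mM citric acid. Compounds at 25 μM–1.3 nM, preincubated 30 min with enzyme. IC50 from 4-parameter logistic fit.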
What is called IC50 is the concentration at which inhibition is half-maximal. For `Cc1ccc2c(N)c(C(=O)N[C@H]3COc4cc(N5CCN[C@@H](C)[C@H]5C)ccc4C3)sc2n1` (single isomer, unassigned) [Example 1-7], the IC50 was in the range of 1 to 50 nM.

The same experiment, now with this note: Ubiquitin-Rhodamine 110 assay, format Example A-2; read-out: USP25 A-2 IC50 range.
Consider `Cc1cnc2c(N)c(C(=O)N[C@@H]3CCc4cc(N5CC6CCC(C5)N6)c(C#N)cc4C3)sc2n1` (single isomer, unassigned) [Example 14-7], for which the IC50 was greater than 2000 nM.
Same read-out and setting: under `Cc1cnc2c(N)c(C(=O)N[C@H]3CCc4cc(N5CC6CCC(C5)N6)c(C#N)cc4C3)sc2n1` (single isomer, unassigned) [Example 14-8] stands 50 to 200 nM; under `Cc1nc2sc(C(=O)N[C@@H]3CCc4cc(N5CC6CCC(C5)N6)ccc4C3)c(N)c2s1` (single isomer, unassigned) [Example 12-2], 200 to 2000 nM; under `Cc1ccc2c(N)c(C(=O)N[C@H]3CCc4c(ccc(N5CC6CCC(C5)N6)c4C#N)C3)sc2n1` (single isomer, unassigned) [Example 14-2], greater than 2000 nM.
For `Cc1nc2sc(C(=O)N[C@H]3CCc4cc(N5CCNCC5)ccc4C3)c(N)c2s1` (single isomer, unassigned) [Example 11-33], the IC50 was greater than 2000 nM.
With `Cc1ccc2c(N)c(C(=O)N[C@@H]3CCc4c(ccc(N5CC6CCC(C5)N6)c4C#N)C3)sc2n1` (single isomer, unassigned) [Example 14-1], the IC50 was 50 to 200 nM.
Consider `Cc1ccc2c(N)c(C(=O)N[C@@H]3CCc4cc(N5CC6CCC(C5)N6)c(C#N)cc4C3)sc2n1` (single isomer, unassigned) [Example 14-3], for which the IC50 is greater than 2000 nM.
Regarding `Cc1cnc2c(N)c(C(=O)N[C@@H]3CCc4c(ccc(N5CC6CCC(C5)N6)c4C#N)C3)sc2n1` (single isomer, unassigned) [Example 14-5], the concentration for half-maximal inhibition (IC50) was in the range of 50 to 200 nM.
Regarding `Cc1ccc2c(N)c(C(=O)N[C@H]3CCc4cc(N5CC6CCC(C5)N6)c(C#N)cc4C3)sc2n1` (single isomer, unassigned) [Example 14-4], the IC50 is 50 to 200 nM.
Same read-out and setting: the figure for `Cc1cnc2c(N)c(C(=O)N[C@H]3CCc4c(ccc(N5CC6CCC(C5)N6)c4C#N)C3)sc2n1` (single isomer, unassigned) [Example 14-6] is greater than 2000 nM.
